In ChEMBL document CHEMBL1127581, “Evolution of a novel series of [(N,N-dimethylamino)propyl]- and piperazinylbenzanilides as the first selective 5-HT1D antagonists” (J Med Chem, 1994):

Columns and labels:
[1] = target: T1, Adrenergic receptor alpha-2 (Homo sapiens, UniProt P08913+P18825+P18089); assay: Binding affinity against alpha-2 adrenoceptor; assay type: protein assay
T1 sequence (P08913 whole entry): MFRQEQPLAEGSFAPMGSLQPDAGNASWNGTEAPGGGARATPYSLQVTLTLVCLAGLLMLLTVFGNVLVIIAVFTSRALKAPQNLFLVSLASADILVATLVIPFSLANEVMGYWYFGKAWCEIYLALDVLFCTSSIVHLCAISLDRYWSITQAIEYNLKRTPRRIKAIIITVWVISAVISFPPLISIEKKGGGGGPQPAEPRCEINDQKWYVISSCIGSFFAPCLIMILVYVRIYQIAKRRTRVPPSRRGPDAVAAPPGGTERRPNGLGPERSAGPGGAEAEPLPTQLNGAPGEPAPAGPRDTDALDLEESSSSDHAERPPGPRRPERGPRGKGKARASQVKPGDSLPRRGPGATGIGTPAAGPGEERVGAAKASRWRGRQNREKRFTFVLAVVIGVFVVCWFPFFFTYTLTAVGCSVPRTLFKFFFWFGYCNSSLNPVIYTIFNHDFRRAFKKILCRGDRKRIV
T1 sequence (P18825 whole entry): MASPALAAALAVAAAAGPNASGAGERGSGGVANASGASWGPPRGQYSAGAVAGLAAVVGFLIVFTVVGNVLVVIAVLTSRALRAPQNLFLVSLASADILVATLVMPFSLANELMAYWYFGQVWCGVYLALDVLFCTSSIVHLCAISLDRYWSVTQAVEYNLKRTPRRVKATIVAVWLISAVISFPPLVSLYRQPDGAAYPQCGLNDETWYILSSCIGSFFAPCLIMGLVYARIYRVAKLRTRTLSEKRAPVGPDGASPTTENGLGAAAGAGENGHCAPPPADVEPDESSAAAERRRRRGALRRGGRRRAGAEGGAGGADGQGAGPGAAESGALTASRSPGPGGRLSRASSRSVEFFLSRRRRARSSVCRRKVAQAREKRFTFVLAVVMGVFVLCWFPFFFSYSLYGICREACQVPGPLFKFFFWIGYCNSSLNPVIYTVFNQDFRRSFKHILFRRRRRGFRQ
T1 sequence (P18089 whole entry): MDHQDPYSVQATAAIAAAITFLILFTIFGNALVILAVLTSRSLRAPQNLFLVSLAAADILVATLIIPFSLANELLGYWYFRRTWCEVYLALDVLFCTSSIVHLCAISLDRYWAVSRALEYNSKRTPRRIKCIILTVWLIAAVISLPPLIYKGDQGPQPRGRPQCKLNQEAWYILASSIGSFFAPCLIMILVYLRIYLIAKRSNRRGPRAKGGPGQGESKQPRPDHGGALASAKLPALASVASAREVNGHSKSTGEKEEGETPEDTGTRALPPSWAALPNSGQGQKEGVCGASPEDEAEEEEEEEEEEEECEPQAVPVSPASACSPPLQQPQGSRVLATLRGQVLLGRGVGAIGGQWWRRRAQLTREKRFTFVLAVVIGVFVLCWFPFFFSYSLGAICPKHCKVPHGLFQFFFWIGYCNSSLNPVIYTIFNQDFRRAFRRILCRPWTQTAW

[2] = target: T2, 5-hydroxytryptamine receptor 1A (Rattus norvegicus, UniProt P19327); assay: Binding affinity towards 5-hydroxytryptamine 1A receptor in rat hippocampus with [3H]8-OH-DPAT; assay type: tissue-based
T2 sequence (P19327 whole entry): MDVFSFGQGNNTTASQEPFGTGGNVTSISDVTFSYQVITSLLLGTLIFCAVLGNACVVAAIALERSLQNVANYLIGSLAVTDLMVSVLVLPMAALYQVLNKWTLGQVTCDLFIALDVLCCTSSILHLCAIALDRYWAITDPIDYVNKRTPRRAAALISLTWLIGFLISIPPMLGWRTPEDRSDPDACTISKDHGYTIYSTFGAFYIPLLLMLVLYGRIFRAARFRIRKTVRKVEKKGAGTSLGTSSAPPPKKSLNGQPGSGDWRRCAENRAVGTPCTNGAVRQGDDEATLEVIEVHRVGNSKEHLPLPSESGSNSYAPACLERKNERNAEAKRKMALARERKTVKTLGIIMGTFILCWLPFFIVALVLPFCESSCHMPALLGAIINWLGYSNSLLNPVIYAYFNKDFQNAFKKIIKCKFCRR

[3] = target: D(1A) dopamine receptor (Homo sapiens, UniProt P21728); assay: Binding affinity against dopamine receptor D1
[4] = organism: Oryctolagus cuniculus; assay: Tested in vitro for its ability to block 5-HT2A induced contraction of rabbit isolated aorta; assay type: functional
[5] = target: T3, D(4) dopamine receptor (Homo sapiens, UniProt P21917); assay: Binding affinity against dopamine D4 receptor
T3 sequence (P21917 whole entry): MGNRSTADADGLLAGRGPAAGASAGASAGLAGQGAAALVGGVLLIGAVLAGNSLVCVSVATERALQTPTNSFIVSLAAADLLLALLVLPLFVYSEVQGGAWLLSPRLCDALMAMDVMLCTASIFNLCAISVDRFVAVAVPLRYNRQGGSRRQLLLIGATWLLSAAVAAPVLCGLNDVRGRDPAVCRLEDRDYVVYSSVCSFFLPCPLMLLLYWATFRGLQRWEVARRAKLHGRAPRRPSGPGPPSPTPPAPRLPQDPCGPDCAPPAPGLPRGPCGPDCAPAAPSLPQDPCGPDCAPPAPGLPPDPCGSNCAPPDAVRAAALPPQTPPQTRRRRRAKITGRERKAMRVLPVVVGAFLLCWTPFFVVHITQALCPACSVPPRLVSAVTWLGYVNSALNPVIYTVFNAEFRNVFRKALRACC

[6] = organism: Canis familiaris; settings: Canis lupus familiaris; Saphenous vein; filed as antagonist
[7] = target: Serotonin 3 (5-HT3) receptor; assay: Binding affinity against the 5-hydroxytryptamine 3 receptor; assay type: protein-complex assay
[8] = target: 5-hydroxytryptamine receptor 1B (Rattus norvegicus, UniProt P28564); assay: In vitro binding affinity towards 5-hydroxytryptamine 1B receptor in rat striatal membrane with [125I]- iodocyanopindolol; assay type: cell membranes, Striatum
[9] = target: Muscarinic acetylcholine receptor M3 (Homo sapiens, UniProt P20309); assay: Binding affinity against muscarinic M3 receptor
Chain of Muscarinic acetylcholine receptor M3 (P20309 whole entry): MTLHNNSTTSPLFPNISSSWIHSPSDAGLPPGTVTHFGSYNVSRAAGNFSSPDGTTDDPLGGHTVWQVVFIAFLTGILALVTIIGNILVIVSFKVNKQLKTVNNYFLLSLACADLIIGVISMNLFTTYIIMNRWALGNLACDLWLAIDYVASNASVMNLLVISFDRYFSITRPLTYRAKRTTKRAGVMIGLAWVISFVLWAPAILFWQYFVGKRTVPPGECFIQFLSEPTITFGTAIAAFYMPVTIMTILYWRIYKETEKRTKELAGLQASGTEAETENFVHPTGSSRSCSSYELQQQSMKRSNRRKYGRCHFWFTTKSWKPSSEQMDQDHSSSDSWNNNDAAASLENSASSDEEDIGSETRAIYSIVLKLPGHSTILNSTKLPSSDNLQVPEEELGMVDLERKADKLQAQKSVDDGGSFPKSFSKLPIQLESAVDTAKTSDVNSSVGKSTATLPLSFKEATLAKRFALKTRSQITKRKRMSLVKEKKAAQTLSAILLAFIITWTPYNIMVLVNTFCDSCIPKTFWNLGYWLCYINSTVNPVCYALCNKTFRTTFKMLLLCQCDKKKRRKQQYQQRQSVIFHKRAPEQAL

Chain of D(1A) dopamine receptor (P21728 whole entry): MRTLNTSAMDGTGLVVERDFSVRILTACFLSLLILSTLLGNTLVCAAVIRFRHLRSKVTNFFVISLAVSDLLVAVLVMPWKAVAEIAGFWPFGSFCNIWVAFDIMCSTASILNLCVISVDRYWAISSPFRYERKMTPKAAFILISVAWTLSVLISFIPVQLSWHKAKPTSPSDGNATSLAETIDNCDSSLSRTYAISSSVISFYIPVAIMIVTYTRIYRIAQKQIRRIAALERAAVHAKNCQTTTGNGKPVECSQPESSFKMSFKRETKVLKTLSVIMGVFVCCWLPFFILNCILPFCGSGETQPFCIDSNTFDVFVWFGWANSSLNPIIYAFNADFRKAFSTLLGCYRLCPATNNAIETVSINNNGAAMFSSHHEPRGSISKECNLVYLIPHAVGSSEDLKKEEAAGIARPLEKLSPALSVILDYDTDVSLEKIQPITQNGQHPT
Chain of 5-hydroxytryptamine receptor 1B (P28564 whole entry): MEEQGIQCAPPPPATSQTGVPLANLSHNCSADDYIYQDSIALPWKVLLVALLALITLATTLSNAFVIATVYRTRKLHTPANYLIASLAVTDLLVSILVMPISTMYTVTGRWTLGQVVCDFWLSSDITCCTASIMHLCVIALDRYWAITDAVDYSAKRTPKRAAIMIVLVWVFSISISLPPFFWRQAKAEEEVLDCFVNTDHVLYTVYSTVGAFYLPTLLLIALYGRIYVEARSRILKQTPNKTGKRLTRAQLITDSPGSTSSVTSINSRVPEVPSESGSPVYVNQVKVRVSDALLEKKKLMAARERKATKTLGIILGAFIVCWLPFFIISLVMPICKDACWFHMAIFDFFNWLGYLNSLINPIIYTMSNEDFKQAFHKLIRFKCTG

Q: With COc1ccc(NC(=O)c2ccc(-c3ccc(-c4noc(C)n4)cc3C)cc2)cc1N1CCN(C)CC1 [GR-127935] as the compound, how does the Log Ki [1] read?
A: Its Log Ki is > -6.

Q: And the Ki [2]?
A: Its Ki is 316 nM.

Q: What about the Ki [3] of the same compound?
A: The Ki was > 10 µM.

Q: And the pKB [4]?
A: Its pKB is 6.4.

Q: What about the Ki [5] of the same compound?
A: Its Ki is > 10 µM.

Q: What about the pKB [6] of the same compound?
A: The pKB was “Antagonist”.

Q: What about the “Log Ki” value [7] of the same compound?
A: The value was -5.2.

Q: What about the Ki [8] of the same compound?
A: The Ki was 3.16 nM.

Q: What about the Ki [9] of the same compound?
A: The Ki was > 1000 nM.
